Test results: PubChem BioAssay AID1259407 (Chemical Carcinogenesis Research Information System (CCRIS), 2018)
Activity calls are given as the source filed them. How the calls were made is not given here.

Tested on: CCRIS mutagenicity, Ames/micronucleus/aberration tests
Assay: CCRIS mutagenicity studies
[1] = Test System: AMES SALMONELLA TYPHIMURIUM, Strain/Indicator: TA98, Metabolic Activation: NONE, Method: STANDARD PLATE
[2] = Test System: AMES SALMONELLA TYPHIMURIUM, Strain/Indicator: TA100, Metabolic Activation: RAT, LIVER, S-9, AROCLOR 1254, Method: STANDARD PLATE
[3] = Test System: AMES SALMONELLA TYPHIMURIUM, Strain/Indicator: TA98, Metabolic Activation: HAMSTER, LIVER, S-9, AROCLOR 1254 (10%), Method: PREINCUBATION
[4] = Test System: AMES SALMONELLA TYPHIMURIUM, Strain/Indicator: TA98, Metabolic Activation: RAT, LIVER, S-9, AROCLOR 1254 (10%), Method: PREINCUBATION
[5] = Test System: AMES SALMONELLA TYPHIMURIUM, Strain/Indicator: TA100, Metabolic Activation: HAMSTER, LIVER, S-9, AROCLOR 1254 (10%), Method: PREINCUBATION
[6] = Test System: AMES SALMONELLA TYPHIMURIUM, Strain/Indicator: TA1535, Metabolic Activation: NONE, Method: PREINCUBATION

With O=Nc1c(-c2ccc(Cl)cc2)nc2sccn12 as the molecule, how does the mutagenic call [1] read?
The mutagenic call was “inactive; negative”.

What about the mutagenic call (Test System: AMES SALMONELLA TYPHIMURIUM, Strain/Indicator: TA100, Metabolic Activation: NONE, Method: STANDARD PLATE) of the same molecule?
The mutagenic call was “inactive; negative”.

What about the mutagenic call (Test System: AMES SALMONELLA TYPHIMURIUM, Strain/Indicator: TA1535, Metabolic Activation: NONE, Method: STANDARD PLATE) of the same molecule?
The mutagenic call was “inactive; negative”.

What about the mutagenic call (Test System: AMES SALMONELLA TYPHIMURIUM, Strain/Indicator: TA1537, Metabolic Activation: NONE, Method: STANDARD PLATE) of the same molecule?
Its mutagenic call is “active; positive”.

What about the mutagenic call (Test System: AMES SALMONELLA TYPHIMURIUM, Strain/Indicator: TA1538, Metabolic Activation: NONE, Method: STANDARD PLATE) of the same molecule?
The mutagenic call was “active; positive”.

With O=C1C=C2c3cc4ccccc4cc3-c3cccc(c32)C1=O as the molecule, how does the mutagenic call [2] read?
The mutagenic call was “active; positive”.

For O=C(O)c1ccc([N+](=O)[O-])cc1, which mutagenic call [3] is on record?
Its mutagenic call is “inactive; negative”.

And the mutagenic call [1]?
Its mutagenic call is “active; positive”.

What about the mutagenic call [4] of the same molecule?
Its mutagenic call is “inactive; negative”.

And the mutagenic call (Test System: AMES SALMONELLA TYPHIMURIUM, Strain/Indicator: TA98, Metabolic Activation: RAT, LIVER, S-9, KANECHLOR 500, Method: PREINCUBATION)?
The mutagenic call was “inactive; negative”.

And the mutagenic call [5]?
The mutagenic call was “active; positive”.

And the mutagenic call (Test System: AMES SALMONELLA TYPHIMURIUM, Strain/Indicator: TA100, Metabolic Activation: HAMSTER, LIVER, S-9, AROCLOR 1254, FLAVIN MONONUCLEOTIDE, Method: PREINCUBATION)?
Its mutagenic call is “active; positive”.

And the mutagenic call (Test System: AMES SALMONELLA TYPHIMURIUM, Strain/Indicator: TA100, Metabolic Activation: HAMSTER, LIVER, S-9, AROCLOR 1254, Method: PREINCUBATION)?
The mutagenic call was “active; positive”.

And the mutagenic call (Test System: AMES SALMONELLA TYPHIMURIUM, Strain/Indicator: TA100, Metabolic Activation: RAT, LIVER, S-9, AROCLOR 1254 (10%), Method: PREINCUBATION)?
Its mutagenic call is “active; positive”.

And the mutagenic call (Test System: AMES SALMONELLA TYPHIMURIUM, Strain/Indicator: TA100, Metabolic Activation: RAT, LIVER, S-9, AROCLOR 1254, FLAVIN MONONUCLEOTIDE, Method: PREINCUBATION)?
Its mutagenic call is “active; positive”.

And the mutagenic call [2]?
The mutagenic call was “inactive; negative”.

What about the mutagenic call (Test System: AMES SALMONELLA TYPHIMURIUM, Strain/Indicator: TA100, Metabolic Activation: RAT, LIVER, S-9, KANECHLOR 500, Method: PREINCUBATION) of the same molecule?
The mutagenic call was “active; positive”.

And the mutagenic call (Test System: AMES SALMONELLA TYPHIMURIUM, Strain/Indicator: TA1535, Metabolic Activation: HAMSTER, LIVER, S-9, AROCLOR 1254 (10%), Method: PREINCUBATION)?
The mutagenic call was “inactive; negative”.

And the mutagenic call [6]?
The mutagenic call was “inactive; negative”.

And the mutagenic call (Test System: AMES SALMONELLA TYPHIMURIUM, Strain/Indicator: TA1535, Metabolic Activation: RAT, LIVER, S-9, AROCLOR 1254 (10%), Method: PREINCUBATION)?
Its mutagenic call is “inactive; negative”.

And the mutagenic call (Test System: AMES SALMONELLA TYPHIMURIUM, Strain/Indicator: TA1537, Metabolic Activation: HAMSTER, LIVER, S-9, AROCLOR 1254 (10%), Method: PREINCUBATION)?
The mutagenic call was “inactive; negative”.

And the mutagenic call (Test System: AMES SALMONELLA TYPHIMURIUM, Strain/Indicator: TA1537, Metabolic Activation: NONE, Method: PREINCUBATION)?
Its mutagenic call is “inactive; negative”.

And the mutagenic call (Test System: AMES SALMONELLA TYPHIMURIUM, Strain/Indicator: TA1537, Metabolic Activation: RAT, LIVER, S-9, AROCLOR 1254 (10%), Method: PREINCUBATION)?
Its mutagenic call is “inactive; negative”.

What about the mutagenic call (Test System: AMES SALMONELLA TYPHIMURIUM, Strain/Indicator: TA1538, Metabolic Activation: NONE, Method: PREINCUBATION) of the same molecule?
The mutagenic call was “active; positive”.

How did the mutagenic call (Test System: AMES SALMONELLA TYPHIMURIUM, Strain/Indicator: TA98, Metabolic Activation: NONE, Method: PREINCUBATION (KCL-CONTAINING MEDIUM)) turn out when c1ccc2c(c1)-c1c(ccc3ccccc13)C1OC21 (stereo not given) was run?
Its mutagenic call is “active; positive”.

What about the mutagenic call (Test System: AMES SALMONELLA TYPHIMURIUM, Strain/Indicator: TA98, Metabolic Activation: NONE, Method: PREINCUBATION (KCL-FREE MEDIUM)) of the same molecule?
Its mutagenic call is “active; positive”.

And the mutagenic call (Test System: AMES SALMONELLA TYPHIMURIUM, Strain/Indicator: TA100, Metabolic Activation: NONE, Method: PREINCUBATION (KCL-CONTAINING MEDIUM))?
The mutagenic call was “active; positive”.

And the mutagenic call (Test System: AMES SALMONELLA TYPHIMURIUM, Strain/Indicator: TA100, Metabolic Activation: NONE, Method: PREINCUBATION (KCL-FREE MEDIUM))?
Its mutagenic call is “active; positive”.

Which results are given for NO?
mutagenic call (Test System: AMES SALMONELLA TYPHIMURIUM, Strain/Indicator: TA97, Metabolic Activation: HAMSTER, LIVER, S-9, AROCLOR 1254 (10 OR 30%), Method: PREINCUBATION): inactive; negative; mutagenic call (Test System: AMES SALMONELLA TYPHIMURIUM, Strain/Indicator: TA97, Metabolic Activation: NONE, Method: PREINCUBATION): inactive; negative; mutagenic call (Test System: AMES SALMONELLA TYPHIMURIUM, Strain/Indicator: TA97, Metabolic Activation: RAT, LIVER, S-9, AROCLOR 1254 (10 OR 30%), Method: PREINCUBATION): inactive; negative; mutagenic call [3]: inactive; negative; mutagenic call (Test System: AMES SALMONELLA TYPHIMURIUM, Strain/Indicator: TA98, Metabolic Activation: HAMSTER, LIVER, S-9, AROCLOR 1254 (30%), Method: PREINCUBATION): inactive; negative; mutagenic call (Test System: AMES SALMONELLA TYPHIMURIUM, Strain/Indicator: TA98, Metabolic Activation: NONE, Method: PREINCUBATION): inactive; negative; mutagenic call [4]: inactive; negative; mutagenic call (Test System: AMES SALMONELLA TYPHIMURIUM, Strain/Indicator: TA98, Metabolic Activation: RAT, LIVER, S-9, AROCLOR 1254 (30%), Method: PREINCUBATION): inactive; negative; mutagenic call [5]: inactive; negative; mutagenic call (Test System: AMES SALMONELLA TYPHIMURIUM, Strain/Indicator: TA100, Metabolic Activation: HAMSTER, LIVER, S-9, AROCLOR 1254 (30%), Method: PREINCUBATION): inactive; negative; mutagenic call (Test System: AMES SALMONELLA TYPHIMURIUM, Strain/Indicator: TA100, Metabolic Activation: NONE, Method: PREINCUBATION): inactive; negative; mutagenic call (Test System: AMES SALMONELLA TYPHIMURIUM, Strain/Indicator: TA100, Metabolic Activation: RAT, LIVER, S-9, AROCLOR 1254 (10 OR 30%), Method: PREINCUBATION): inactive; negative; mutagenic call (Test System: AMES SALMONELLA TYPHIMURIUM, Strain/Indicator: TA102, Metabolic Activation: RAT, LIVER, S-9, AROCLOR 1254, Method: STANDARD PLATE): inactive; negative; mutagenic call (Test System: AMES SALMONELLA TYPHIMURIUM, Strain/Indicator: TA1535, Metabolic Activation: HAMSTER, LIVER, S-9, AROCLOR 1254 (10 OR 30%), Method: PREINCUBATION): inactive; negative; mutagenic call [6]: inactive; negative; mutagenic call (Test System: AMES SALMONELLA TYPHIMURIUM, Strain/Indicator: TA1535, Metabolic Activation: RAT, LIVER, S-9, AROCLOR 1254 (10 OR 30%), Method: PREINCUBATION): inactive; negative; mutagenic call (Test System: MOUSE LYMPHOMA, Strain/Indicator: L5178Y (TK+/TK-), Metabolic Activation: NONE, Method: SUSPENSION/PLATE): active; positive; mutagenic call (Test System: MOUSE LYMPHOMA, Strain/Indicator: L5178Y (TK+/TK-), Metabolic Activation: RAT, LIVER, S-9, AROCLOR 1254, Method: SUSPENSION/PLATE): active; positive

Cc1c(Cl)cnc2ccccc12 was tested. Which mutagenic call (Test System: AMES SALMONELLA TYPHIMURIUM, Strain/Indicator: TA100, Metabolic Activation: RAT, LIVER, S-9, Method: PREINCUBATION) did it give?
Its mutagenic call is “inactive; negative”.

With Cc1nc2ccc3ccc4ccc(O)cc4c3c2n1C as the molecule, how does the mutagenic call (Test System: AMES SALMONELLA TYPHIMURIUM, Strain/Indicator: TA98, Metabolic Activation: RAT, LIVER, S-9, AROCLOR, Method: STANDARD PLATE) read?
The mutagenic call was “active; positive”.

With ClCCC(Br)CBr (stereo not given) as the molecule, how does the mutagenic call (Test System: AMES SALMONELLA TYPHIMURIUM, Strain/Indicator: TA100, Metabolic Activation: RAT, LIVER, MICROSOMES, PHENOBARBITAL, Method: PREINCUBATION) read?
Its mutagenic call is “inactive; negative”.

And the mutagenic call (Test System: AMES SALMONELLA TYPHIMURIUM, Strain/Indicator: TA100, Metabolic Activation: RAT, LIVER, MICROSOMES, Method: PREINCUBATION)?
The mutagenic call was “inactive; negative”.
